For two compounds, ED50 and MIC results are on record in ChEMBL document CHEMBL1649228, “In vivo antibacterial activity of vertilmicin, a new aminoglycoside antibiotic” (2009).

As a reminder, the ED50 is the midpoint of the dose-response relation. High values mean weaker potency, low ones greater potency.

Converted amounts (≈) assume the structure as drawn. Some results are limits rather than exact numbers.

One test relates to Staphylococcus aureus. The experiment in a line: Antimicrobial activity against methicillin-susceptible Staphylococcus aureus ATCC 29213 infected in CD-1 ICR mouse using 1.5 X 10^5 CFU inoculum. The format is functional.
Details: not given
`CN[C@@H]1[C@@H](O)[C@@H](O[C@@H]2[C@@H](O)[C@H](O[C@@H]3OC(C(C)N)=CC[C@@H]3N)[C@@H](N)C[C@H]2N)OC[C@]1(C)O` (stereo partly specified) [VERDAMICIN] gave an ED50 of 0.23 mg/kg.

As for GENTAMICIN, it took a dose of 0.6 mg/kg to reach the 50% effect level (ED50). This ED50 is about 2.6-fold higher than that of the compound before.

Another test has as its system Staphylococcus aureus. The test is described as follows: Antimicrobial activity against methicillin-susceptible Staphylococcus aureus 15 using 2.5 X 10^5 CFU inoculum by agar dilution method.
Details: not given
The class given is functional. Background: In agar dilution, organisms are placed on agar that contains the substance at set levels.
`CN[C@@H]1[C@@H](O)[C@@H](O[C@@H]2[C@@H](O)[C@H](O[C@@H]3OC(C(C)N)=CC[C@@H]3N)[C@@H](N)C[C@H]2N)OC[C@]1(C)O` (stereo partly specified) [VERDAMICIN] gave an MIC of 0.125 µg/mL (≈ 0.271 µM).

GENTAMICIN had an MIC of 0.125 µg/mL.

The test system of the next test is Enterococcus faecalis. The experiment in a line: Antimicrobial activity against Enterococcus faecalis HH22 infected in CD-1 ICR mouse using 1.8 X 10^8 inoculum. The class given is functional.
Details: not given
In turn, `CN[C@@H]1[C@@H](O)[C@@H](O[C@@H]2[C@@H](O)[C@H](O[C@@H]3OC(C(C)N)=CC[C@@H]3N)[C@@H](N)C[C@H]2N)OC[C@]1(C)O` (stereo partly specified) [VERDAMICIN] had an ED50 greater than 100 mg/kg.

In turn, GENTAMICIN had an ED50 greater than 100 mg/kg.

The subject of the next test is Staphylococcus aureus. The experiment in a line: Antimicrobial activity against methicillin-resistant Staphylococcus aureus 9344 using 2.5 X 10^5 CFU inoculum by agar dilution method. The format is functional.
Details: not given
Take `CN[C@@H]1[C@@H](O)[C@@H](O[C@@H]2[C@@H](O)[C@H](O[C@@H]3OC(C(C)N)=CC[C@@H]3N)[C@@H](N)C[C@H]2N)OC[C@]1(C)O` (stereo partly specified) [VERDAMICIN]: the MIC was found to be 0.25 µg/mL (≈ 0.542 µM).

On to GENTAMICIN, for which the MIC was found to be 0.25 µg/mL.

For a further test, the system named is Klebsiella pneumoniae. The experiment in a line: microbe, parasite or virus in culture. To be noted: 935.
Description: Antimicrobial activity against Klebsiella pneumoniae 935 using 3 X 10^5 CFU inoculum by agar dilution method
Regarding `CN[C@@H]1[C@@H](O)[C@@H](O[C@@H]2[C@@H](O)[C@H](O[C@@H]3OC(C(C)N)=CC[C@@H]3N)[C@@H](N)C[C@H]2N)OC[C@]1(C)O` (stereo partly specified) [VERDAMICIN], the MIC was determined as 0.5 µg/mL (≈ 1.08 µM).

In another test the test system is Escherichia coli. The test is described as follows: Antimicrobial activity against Escherichia coli 1515 infected in CD-1 ICR mouse using 2.4 X 10^6 CFU inoculum. The format is functional.
Details: not given
Turning to `CN[C@@H]1[C@@H](O)[C@@H](O[C@@H]2[C@@H](O)[C@H](O[C@@H]3OC(C(C)N)=CC[C@@H]3N)[C@@H](N)C[C@H]2N)OC[C@]1(C)O` (stereo partly specified) [VERDAMICIN], the 50% effect level (ED50) was put at a dose of 0.49 mg/kg.

Compound GENTAMICIN showed an ED50 of 1.11 mg/kg.

For a further test, the system named is Escherichia coli. The test is described as follows: Antimicrobial activity against Escherichia coli 9612 infected in CD-1 ICR mouse using 3.7 X 10^4 CFU inoculum. The format is functional.
Details: not given
Consider `CN[C@@H]1[C@@H](O)[C@@H](O[C@@H]2[C@@H](O)[C@H](O[C@@H]3OC(C(C)N)=CC[C@@H]3N)[C@@H](N)C[C@H]2N)OC[C@]1(C)O` (stereo partly specified) [VERDAMICIN], for which the ED50 stood at 2.66 mg/kg.

For GENTAMICIN, the ED50 is 7.88 mg/kg.

The subject of a further test is Escherichia coli. The test is described as follows: microbe, parasite or virus in culture. The note with it: ATCC 25922.
Description: Antimicrobial activity against Escherichia coli ATCC 25922 using 1 X 10^5 CFU inoculum by agar dilution method
In turn, `CN[C@@H]1[C@@H](O)[C@@H](O[C@@H]2[C@@H](O)[C@H](O[C@@H]3OC(C(C)N)=CC[C@@H]3N)[C@@H](N)C[C@H]2N)OC[C@]1(C)O` (stereo partly specified) [VERDAMICIN] registered an MIC of 0.5 µg/mL (≈ 1.08 µM).

The subject of another test is Staphylococcus aureus. The test is described as follows: Antimicrobial activity against methicillin-susceptible Staphylococcus aureus 15 infected in CD-1 ICR mouse using 2.5 X 10^5 CFU inoculum. The class given is functional.
Details: not given
Consider `CN[C@@H]1[C@@H](O)[C@@H](O[C@@H]2[C@@H](O)[C@H](O[C@@H]3OC(C(C)N)=CC[C@@H]3N)[C@@H](N)C[C@H]2N)OC[C@]1(C)O` (stereo partly specified) [VERDAMICIN], for which the ED50 was found to be 0.66 mg/kg.

GENTAMICIN: the 50% effect level (ED50) was put at a dose of 0.61 mg/kg. This ED50 and that of the compound before are within 1.5-fold of each other.

The next test has as its system Staphylococcus aureus. The test is described as follows: Antimicrobial activity against methicillin-susceptible Staphylococcus aureus ATCC 29213 using 1.5 X 10^5 CFU inoculum by agar dilution method. The format is functional.
Details: not given
`CN[C@@H]1[C@@H](O)[C@@H](O[C@@H]2[C@@H](O)[C@H](O[C@@H]3OC(C(C)N)=CC[C@@H]3N)[C@@H](N)C[C@H]2N)OC[C@]1(C)O` (stereo partly specified) [VERDAMICIN]: the MIC came out at 0.125 µg/mL (≈ 0.271 µM).

On to GENTAMICIN, for which the MIC stood at 0.125 µg/mL.

The test system of a further test is Enterococcus faecalis. The experiment in a line: Antimicrobial activity against Enterococcus faecalis ATCC 29212 infected in CD-1 ICR mouse using 2.8 X 10^7 inoculum. The class given is functional.
Details: not given
Consider `CN[C@@H]1[C@@H](O)[C@@H](O[C@@H]2[C@@H](O)[C@H](O[C@@H]3OC(C(C)N)=CC[C@@H]3N)[C@@H](N)C[C@H]2N)OC[C@]1(C)O` (stereo partly specified) [VERDAMICIN], for which it took a dose of 5.24 mg/kg to reach the 50% effect level (ED50).

As for GENTAMICIN, the 50% effect level (ED50) was put at a dose of 17.5 mg/kg.

The next test concerns Klebsiella pneumoniae. The experiment in a line: microbe, parasite or virus in culture. To be noted: 967.
Description: Antimicrobial activity against Klebsiella pneumoniae 967 using 2.6 X 10^5 CFU inoculum by agar dilution method
`CN[C@@H]1[C@@H](O)[C@@H](O[C@@H]2[C@@H](O)[C@H](O[C@@H]3OC(C(C)N)=CC[C@@H]3N)[C@@H](N)C[C@H]2N)OC[C@]1(C)O` (stereo partly specified) [VERDAMICIN] gave an MIC of 0.25 µg/mL (≈ 0.542 µM).

Another test deals with Staphylococcus aureus. The experiment in a line: Antimicrobial activity against methicillin-resistant Staphylococcus aureus 9344 infected in CD-1 ICR mouse using 2.5 X 10^5 CFU inoculum. The class given is functional.
Details: not given
Take `CN[C@@H]1[C@@H](O)[C@@H](O[C@@H]2[C@@H](O)[C@H](O[C@@H]3OC(C(C)N)=CC[C@@H]3N)[C@@H](N)C[C@H]2N)OC[C@]1(C)O` (stereo partly specified) [VERDAMICIN]: the 50% effect level (ED50) was put at a dose of 1.33 mg/kg.

The compound GENTAMICIN came in with an ED50 of 2.84 mg/kg.

Another test concerns Enterococcus faecalis. The experiment in a line: Antimicrobial activity against Enterococcus faecalis ATCC 29212 using 2.8 X 10^7 by agar dilution method. The class given is functional.
Details: not given
`CN[C@@H]1[C@@H](O)[C@@H](O[C@@H]2[C@@H](O)[C@H](O[C@@H]3OC(C(C)N)=CC[C@@H]3N)[C@@H](N)C[C@H]2N)OC[C@]1(C)O` (stereo partly specified) [VERDAMICIN] came in with an MIC of 8 µg/mL (≈ 17.3 µM).

Turning to GENTAMICIN, the MIC stood at 8 µg/mL.

The subject of another test is Escherichia coli. The experiment in a line: Antimicrobial activity against Escherichia coli 9612 using 3.7 X 10^4 CFU inoculum by agar dilution method. The format is functional.
Details: not given
`CN[C@@H]1[C@@H](O)[C@@H](O[C@@H]2[C@@H](O)[C@H](O[C@@H]3OC(C(C)N)=CC[C@@H]3N)[C@@H](N)C[C@H]2N)OC[C@]1(C)O` (stereo partly specified) [VERDAMICIN]: the MIC turned out to be 4 µg/mL (≈ 8.67 µM).

As to GENTAMICIN, the MIC was determined as 8 µg/mL.

In the next test the test system is Klebsiella pneumoniae. The test is described as follows: Antimicrobial activity against Klebsiella pneumoniae 967 infected in CD-1 ICR mouse using 2.6 X 10^5 CFU inoculum. The class given is functional.
Details: not given
In the case of `CN[C@@H]1[C@@H](O)[C@@H](O[C@@H]2[C@@H](O)[C@H](O[C@@H]3OC(C(C)N)=CC[C@@H]3N)[C@@H](N)C[C@H]2N)OC[C@]1(C)O` (stereo partly specified) [VERDAMICIN], the 50% effective dose (ED50) worked out at 0.16 mg/kg.

Compound GENTAMICIN yielded an ED50 of 0.32 mg/kg.

The subject of another test is Klebsiella pneumoniae. The test is described as follows: Antimicrobial activity against Klebsiella pneumoniae 935 infected in CD-1 ICR mouse using 3 X 10^5 CFU inoculum. The class given is functional.
Details: not given
In turn, `CN[C@@H]1[C@@H](O)[C@@H](O[C@@H]2[C@@H](O)[C@H](O[C@@H]3OC(C(C)N)=CC[C@@H]3N)[C@@H](N)C[C@H]2N)OC[C@]1(C)O` (stereo partly specified) [VERDAMICIN] showed an ED50 of 0.29 mg/kg.

GENTAMICIN gave an ED50 of 0.68 mg/kg. This ED50 lies about 2.3-fold higher than the previous one.

The next test has as its system Escherichia coli. The test is described as follows: Antimicrobial activity against Escherichia coli ATCC 25922 infected in CD-1 ICR mouse using 1 X 10^5 CFU inoculum. The format is functional.
Details: not given
On to `CN[C@@H]1[C@@H](O)[C@@H](O[C@@H]2[C@@H](O)[C@H](O[C@@H]3OC(C(C)N)=CC[C@@H]3N)[C@@H](N)C[C@H]2N)OC[C@]1(C)O` (stereo partly specified) [VERDAMICIN], for which the ED50 came to 1.09 mg/kg.

With GENTAMICIN, it took a dose of 1.5 mg/kg to reach the 50% effect level (ED50). The ED50 values of the last two compounds are within 1.5-fold of each other.

A further test relates to Enterococcus faecalis. The test is described as follows: Antimicrobial activity against Enterococcus faecalis HH22 using 1.8 X 10^8 by agar dilution method. The class given is functional.
Details: not given
`CN[C@@H]1[C@@H](O)[C@@H](O[C@@H]2[C@@H](O)[C@H](O[C@@H]3OC(C(C)N)=CC[C@@H]3N)[C@@H](N)C[C@H]2N)OC[C@]1(C)O` (stereo partly specified) [VERDAMICIN] displayed an MIC greater than 128 µg/mL.

With GENTAMICIN, the MIC was greater than 128 µg/mL.

Another test concerns Escherichia coli. The test is described as follows: microbe, parasite or virus in culture. To be noted: 1515.
Description: Antimicrobial activity against Escherichia coli 1515 using 2.4 X 10^6 CFU inoculum by agar dilution method
`CN[C@@H]1[C@@H](O)[C@@H](O[C@@H]2[C@@H](O)[C@H](O[C@@H]3OC(C(C)N)=CC[C@@H]3N)[C@@H](N)C[C@H]2N)OC[C@]1(C)O` (stereo partly specified) [VERDAMICIN] gave an MIC of 0.5 µg/mL (≈ 1.08 µM).
